What all share (format): biochemical
The target of assay [1] is Syk (Homo sapiens, UniProt P43405). Put plainly: Syk inhibition assay (coupled enzyme assay). The note with it: 200 μM ATP, 4 μM poly Gly-Tyr peptide, 30° C. As for the experimental part:
Reactions were carried out in 100 mM HEPES pH 7.5, 10 mM MgCl2, 25 mM NaCl, 1 mM DTT and 1.5% DMSO. Final substrate .concentrations in the assay were 200 μM ATP (Sigmachemical Co.) and 4 μM poly Gly-Tyr peptide (Sigma Chemical Co.). Assays were carried out at 30° C. and 200 nM Syk. Final concentrations of the components of the coupled enzyme system were 2.5 mM phosphoenolpyruvate, 300 μM NADH, 30 μg/ml pyruvate kinase and 10 μg/ml lactate dehydrogenase.
An assay stock buffer solution was prepared containing all of the reagents listed above, with the exception of Syk, DTT and the test compound of interest. 56 μl of the test reaction was placed in a 96 well plate followed by the addition of 1 μl of 2 mM DMSO stock containing the test compound (final compound concentration 30 μM). […] Rates of reaction were obtained using a BioRad Ultramark plate reader (Hercules, Calif.) over a 5 minute read time at 30° C.
(§1) The compound numbers correspond to the compound numbers in Table 1.

Assay [2] concerns the target GSK3-β (AA 1-420) (Homo sapiens, UniProt P49841). Put plainly: GSK-3 inhibition assay (coupled enzyme system). The note with it: 10 μM ATP, 300 μM peptide, 60 nM GSK-3β, 30° C. As for the experimental part: Compounds were screened for their ability to inhibit GSK3-β (AA 1-420) activity using a standard coupled enzyme system (Fox et al. (1998) Protein Sci. 7, 2249). Reactions were carried out in a solution containing 100 mM HEPES (pH 7.5), 10 mM MgCl2, 25 mM NaCl, 300 μM NADH, 1 mM DTT and 1.5% DMSO. Final substrate concentrations in the assay were 10 μM ATP (Sigma Chemicals, St Louis, Mo.) and 300 μM peptide (HSSPHQS(PO3H2)EDEEE, American Peptide, Sunnyvale, Calif.). Reactions were carried out at 30° C. and 60 nM GSK-3β. Final concentrations of the components of the coupled enzyme system were 2.5 mM phosphoenolpyruvate, 300μM NADH, 30 μg/ml pyruvate kinase and 10 μg/ml lactate dehydrogenase.
An assay stock buffer solution was prepared containing all of the reagents listed above with the exception of ATP and the test compound of interest. 59 μl of the test reaction was placed in a 96 well ½-diameter plate (Corning, Corning, N.Y.) then treated with 1 μl of a 2 mM DMSO stock containing the test compound (final compound concentration 30 μM). The plate was incubated for ˜10 minutes at 30° C. then the reaction initiated by addition of 7 μl of ATP (final concentration 10 μM). Rates of reaction were obtained using a Molecular Devices Spectramax plate reader (Sunnyvale, Calif.) over a 5 minute read time at 30° C.
as §1

In assay [3] the target is T1, Aurora2 (Homo sapiens, UniProt O14965).
T1 sequence (O14965 1-403): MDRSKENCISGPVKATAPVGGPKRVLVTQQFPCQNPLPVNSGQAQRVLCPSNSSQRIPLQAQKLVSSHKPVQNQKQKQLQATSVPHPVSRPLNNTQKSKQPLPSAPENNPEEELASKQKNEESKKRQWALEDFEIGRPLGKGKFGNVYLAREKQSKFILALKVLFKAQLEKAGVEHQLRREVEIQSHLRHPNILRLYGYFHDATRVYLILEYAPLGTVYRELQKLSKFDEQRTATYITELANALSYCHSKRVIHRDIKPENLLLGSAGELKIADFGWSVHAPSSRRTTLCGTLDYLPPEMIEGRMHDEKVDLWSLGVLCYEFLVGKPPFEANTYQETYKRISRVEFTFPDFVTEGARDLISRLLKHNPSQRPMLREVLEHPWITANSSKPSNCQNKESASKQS
In words: Aurora2 inhibition assay (coupled enzyme assay). The settings on record: 800 μM peptide LRRASLG, 70 nM Aurora2, 30° C. As to the method: Compounds are screened in the following manner for their ability to inhibit Aurora2 using a standard coupled enzyme assay (Fox et al (1998). Protein Sci 7, 2246). To an assay stock buffer solution containing 0.1M HEPES 7.5, 10 mM MgCl2, 1 mM DTT, 25 mM NaCl, 2.5 mM prosphoenolpyruvate, […], […] pyruvate kinase, […] lactate dehydrogenase, […], and 800 μM peptide (LRRASLG, American Peptide, Sunnyvale, Calif.) is added a DMSO solution of a compound of the present invention to a final concentration of 30 μM. The resulting mixture is incubated at 30° C. for 10 minutes. The reaction was initiated by the addition of 10 μL of Aurora2 stock solution to give a final concentration of 70 nM in the assay. The rates of reaction are obtained by monitoring absorbance at 340 nm over a 5 minute read time at 30° C. using a BioRad Ultramark plate reader (Hercules, Calif.). The IC50 values are determined from the rate data as a function of inhibitor concentration.
as §1

GSK3-β (AA 1-420), sequence (P49841 whole entry, the tested form may be a part): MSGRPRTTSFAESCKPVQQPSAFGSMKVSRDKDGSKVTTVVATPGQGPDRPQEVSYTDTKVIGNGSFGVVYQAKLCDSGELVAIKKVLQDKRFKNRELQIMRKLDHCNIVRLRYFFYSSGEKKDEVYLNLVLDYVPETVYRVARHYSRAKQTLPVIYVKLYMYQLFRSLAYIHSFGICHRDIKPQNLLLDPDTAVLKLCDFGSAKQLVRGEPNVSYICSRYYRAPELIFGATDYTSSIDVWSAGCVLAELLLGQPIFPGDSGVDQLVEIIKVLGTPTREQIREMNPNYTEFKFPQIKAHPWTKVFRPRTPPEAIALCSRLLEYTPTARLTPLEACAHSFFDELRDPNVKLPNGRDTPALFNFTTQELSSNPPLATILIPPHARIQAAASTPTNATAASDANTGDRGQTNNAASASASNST

Broadly, the IC50 is the concentration that gives 50% inhibition. The term Ki denotes the dissociation constant of the complex between target and ligand, obtained from inhibition or displacement. Take `COc1cccc(Nc2nccc(-c3nccs3)n2)c1` [Compound I-25]: the IC50 in assay [1] was less than 500 nM; in assay [3], 500 to 2000 nM. In assay [2], this compound yielded a Ki of less than 100 nM.

In the case of `Brc1cccc(Nc2nccc(-c3nccs3)n2)c1` [Compound I-34], the IC50 in assay [1] and in assay [3] was less than 500 nM in each case. In assay [2], this compound had a Ki of less than 100 nM.

As for `FC(F)(F)c1cccc(Nc2nccc(-c3nccs3)n2)c1` [Compound I-37], the IC50 in assay [1] was less than 500 nM; in assay [3], 500 to 2000 nM. This compound also had a Ki in assay [2] of less than 100 nM.

As to `FC(F)(F)c1cccc(COc2cccc(Nc3nccc(-c4nccs4)n3)c2)c1` [Compound I-106], the IC50 in assay [1] and in assay [3] was greater than 2000 nM each time. In assay [2], this compound yielded a Ki of less than 100 nM.

Regarding `O=[N+]([O-])c1cccc(Nc2nccc(-c3nccs3)n2)c1` [Compound I-16], the IC50 is 500 to 2000 nM in assay [1] and less than 500 nM in assay [3]. Further, in assay [2], the Ki is greater than 1000 nM.

Consider `Ic1cccc(Nc2nccc(-c3nccs3)n2)c1` [Compound I-31], for which the IC50 in assay [1] and in assay [3] was less than 500 nM throughout. The Ki in assay [2] is less than 100 nM.

Regarding `Fc1ccc(COc2cccc(Nc3nccc(-c4nccs4)n3)c2)cc1` [Compound I-109], the IC50 in assay [1] and in assay [3] was greater than 2000 nM each time. Further, the Ki in assay [2] was less than 100 nM.
